# Test results from publication PMC12591484 (PLOS One, 2025).
# What was measured:
# [1] = target: T1, α1β3M286Cγ2L GABAA receptors (Homo sapiens, UniProt P14867+P18507+P28472, M311C); experiment: Drug protection from pCMBS modification (SCAMP); type: cell-based; conditions: β3M286C (β+); pCMBS 1 µM x 30 s; […] etomidate, 8 µM R-mTFD-MPAB or 10 µM pTFD-di-iPr-BnOH; n = 5
# T1 construct: expressed in transfected cells; host or cells: Xenopus oocytes injected with capped mRNA, 1α:1β:5γ
# Method: (§1) Experiments were performed in ND-96 buffer at room temperature (20–22°C). Oocytes were placed in a low-volume (30µl) flow chamber and impaled with borosilicate microelectrodes filled with 3M KCl (resistance 0.5–3 MΩ) and voltage-clamped at −50 mV (model OC-725C; Warner Instruments, Hamden, CT, USA). Superfusate solutions in ND-96 were delivered at 2 ml/min from glass syringe reservoirs via computer-controlled valves (VC-8; Warner Instruments), a micro-manifold (ALA-VM8; ALA Scientific Instruments, Farmingdale, NY, USA), and PTFE tubing. Currents were digitized at 200 Hz on a computer running ClampEx v8.0 software (Molecular Devices, San Jose, CA, USA). Digitized traces were filtered with a 10-Hz low-pass Bessel function, leak corrected and analyzed for peak amplitude off-line using Clampfit v8 software (Molecular Devices).
# (§2) Drug protection from pCMBS modification was assessed under pCMBS exposure conditions that produced approximately half of the maximal modification ratio for each mutant receptor, and a least a value of 3. This approach balanced the magnitude of functional modification signals (smaller with less pCMBS exposure) against the challenge of using a reversibly bound ligand to competitively block an irreversible covalent cysteine-modifying reaction. […] Each oocyte was used in a single SCAMP experiment. […] Etomidate was used as a positive control for anesthetic protection in α1M236C and β3M286C mutants and as a negative control in α1S270C, α1A291C, β3L231C, γ2S301C, γ2I242C, and γ2L246C mutants. R-mTFD-MPAB was used as a positive control in α1S270C, α1A291C, β3L231C, and γ2LS301C mutants and as a negative control in α1M236C and β3M286C mutants. For each cysteine mutant and protective drug combination, five oocytes were studied.
# (§3) Non-linear least squares fits and statistical analyses were performed in Prism 10.4.0. (GraphPad Software, San Diego, CA, USA). […] Protection (steric inhibition of pCMBS modification) was inferred when anesthetics produced significant reductions in modification ratios relative to control (no anesthetic) values. The statistical significance threshold was p < 0.05.
# [2] = target: T2, α1β3γ2I242C GABAA receptors (Homo sapiens, UniProt P14867+P18507+P28472, I281C); design: key: +: Mutant-function studies are deemed positive when bulky mutations (mostly tryptophans) at the site significantly reduce positive modulation by anesthetics; -: Negative results are indicated by “–“ symbols; conditions: previously reported; cited from earlier work
# T2 construct: expressed in transfected cells; host or cells: Xenopus oocytes injected with capped mRNAs mixed 1α:1β:5γ
# [3] = target: T3, α1S270Cβ3γ2L GABAA receptors (Homo sapiens, UniProt P14867+P18507+P28472, S297C); experiment: Drug protection from pCMBS modification (SCAMP); type: cell-based; conditions: α1S270C (α+); pCMBS 1 µM x 90 s; […] etomidate, 8 µM R-mTFD-MPAB or 10 µM pTFD-di-iPr-BnOH; n = 5
# T3 construct: expressed in transfected cells; host or cells: Xenopus oocytes injected with capped mRNA, 1α:1β:5γ
# Method: as §1, §2, §3
# [4] = target: T4, α1β3γ2S301C GABAA receptors (Homo sapiens, UniProt P14867+P18507+P28472, S340C); experiment: Drug protection from pCMBS modification (SCAMP); type: cell-based; conditions: γ2S301C (γ+); pCMBS 100 µM x 90 s; […] etomidate, 8 µM R-mTFD-MPAB or 10 µM pTFD-di-iPr-BnOH; n = 5
# T4 construct: expressed in transfected cells; host or cells: Xenopus oocytes injected with capped mRNAs mixed 1α:1β:5γ
# T4 sequence (P14867 28-456): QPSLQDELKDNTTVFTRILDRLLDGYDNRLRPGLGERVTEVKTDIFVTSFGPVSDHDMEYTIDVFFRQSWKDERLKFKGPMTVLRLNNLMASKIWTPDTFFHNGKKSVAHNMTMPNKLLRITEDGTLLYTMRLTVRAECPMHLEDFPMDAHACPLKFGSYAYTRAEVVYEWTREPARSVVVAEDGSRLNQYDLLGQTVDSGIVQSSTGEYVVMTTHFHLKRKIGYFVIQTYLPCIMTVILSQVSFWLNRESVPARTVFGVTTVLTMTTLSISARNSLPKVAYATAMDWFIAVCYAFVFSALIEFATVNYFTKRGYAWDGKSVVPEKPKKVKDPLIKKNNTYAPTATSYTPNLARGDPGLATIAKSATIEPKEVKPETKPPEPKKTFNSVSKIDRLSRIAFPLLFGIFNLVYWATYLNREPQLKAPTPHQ
# T4 sequence (P28472 26-473): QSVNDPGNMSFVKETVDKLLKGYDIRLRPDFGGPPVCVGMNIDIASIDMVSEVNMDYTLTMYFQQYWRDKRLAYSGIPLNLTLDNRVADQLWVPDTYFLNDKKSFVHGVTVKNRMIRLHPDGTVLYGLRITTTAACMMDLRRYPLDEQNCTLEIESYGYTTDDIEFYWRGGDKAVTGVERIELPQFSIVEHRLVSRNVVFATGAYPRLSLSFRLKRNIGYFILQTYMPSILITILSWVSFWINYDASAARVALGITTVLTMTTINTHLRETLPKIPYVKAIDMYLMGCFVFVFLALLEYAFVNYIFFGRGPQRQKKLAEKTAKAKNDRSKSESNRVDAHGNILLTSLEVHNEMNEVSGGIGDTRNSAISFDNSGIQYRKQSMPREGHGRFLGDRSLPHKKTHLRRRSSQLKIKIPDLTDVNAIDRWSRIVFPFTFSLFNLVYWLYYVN
# T4 sequence (P18507 40-475 S340C): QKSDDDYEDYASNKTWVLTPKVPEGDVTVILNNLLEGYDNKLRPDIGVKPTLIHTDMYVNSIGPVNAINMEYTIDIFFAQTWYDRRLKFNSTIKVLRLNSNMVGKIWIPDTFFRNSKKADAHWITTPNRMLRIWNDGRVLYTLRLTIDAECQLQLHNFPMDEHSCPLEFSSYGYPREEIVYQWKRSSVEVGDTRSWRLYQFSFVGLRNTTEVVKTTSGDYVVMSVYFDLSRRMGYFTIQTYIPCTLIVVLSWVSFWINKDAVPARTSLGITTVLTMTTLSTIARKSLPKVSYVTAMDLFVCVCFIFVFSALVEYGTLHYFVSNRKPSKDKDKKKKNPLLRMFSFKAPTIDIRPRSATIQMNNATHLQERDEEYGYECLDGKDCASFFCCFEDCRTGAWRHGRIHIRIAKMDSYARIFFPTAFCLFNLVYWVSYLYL
# Method: as §1, §2, §3
# [5] = target: T5, α1β3L231Cγ2L GABAA receptors (Homo sapiens, UniProt P14867+P18507+P28472, L256C); experiment: Drug protection from pCMBS modification (SCAMP); type: cell-based; conditions: β3L231C (β–); pCMBS 100 µM x 30 s; […] etomidate, 8 µM R-mTFD-MPAB or 10 µM pTFD-di-iPr-BnOH; n = 5
# T5 construct: expressed in transfected cells; host or cells: Xenopus oocytes injected with capped mRNA, 1α:1β:5γ
# Method: as §1, §2, §3
# T3 sequence (P14867 28-456 S297C, one chain of several): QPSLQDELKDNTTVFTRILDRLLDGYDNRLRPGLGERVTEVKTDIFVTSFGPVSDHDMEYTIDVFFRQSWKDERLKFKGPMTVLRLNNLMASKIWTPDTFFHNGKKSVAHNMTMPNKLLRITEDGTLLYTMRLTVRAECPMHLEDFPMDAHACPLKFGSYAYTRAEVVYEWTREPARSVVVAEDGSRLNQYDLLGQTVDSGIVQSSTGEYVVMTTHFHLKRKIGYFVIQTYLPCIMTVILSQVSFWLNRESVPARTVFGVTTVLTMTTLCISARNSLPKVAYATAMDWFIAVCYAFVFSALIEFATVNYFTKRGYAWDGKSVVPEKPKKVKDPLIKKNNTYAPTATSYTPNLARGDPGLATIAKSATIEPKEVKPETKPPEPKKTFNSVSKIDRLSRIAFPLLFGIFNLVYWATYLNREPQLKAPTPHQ
# T3 sequence (P18507 40-475, one chain of several): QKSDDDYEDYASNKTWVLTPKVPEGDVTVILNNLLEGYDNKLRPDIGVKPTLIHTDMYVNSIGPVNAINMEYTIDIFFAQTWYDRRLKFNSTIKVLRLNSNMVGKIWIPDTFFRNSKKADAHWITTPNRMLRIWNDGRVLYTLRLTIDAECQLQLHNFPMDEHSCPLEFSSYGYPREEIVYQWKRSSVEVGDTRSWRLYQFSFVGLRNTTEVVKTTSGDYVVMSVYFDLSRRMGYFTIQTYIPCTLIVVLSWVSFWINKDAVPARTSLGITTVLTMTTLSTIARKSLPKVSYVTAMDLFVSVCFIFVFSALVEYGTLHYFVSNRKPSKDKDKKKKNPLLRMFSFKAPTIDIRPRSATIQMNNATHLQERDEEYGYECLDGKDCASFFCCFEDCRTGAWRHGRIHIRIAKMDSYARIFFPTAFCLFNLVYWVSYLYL
# T2 sequence (P18507 40-475 I281C, one chain of several): as the sequence (P18507 40-475, one chain of several) above, with I242C counted along it
# T1 sequence (P28472 26-473 M311C, one chain of several): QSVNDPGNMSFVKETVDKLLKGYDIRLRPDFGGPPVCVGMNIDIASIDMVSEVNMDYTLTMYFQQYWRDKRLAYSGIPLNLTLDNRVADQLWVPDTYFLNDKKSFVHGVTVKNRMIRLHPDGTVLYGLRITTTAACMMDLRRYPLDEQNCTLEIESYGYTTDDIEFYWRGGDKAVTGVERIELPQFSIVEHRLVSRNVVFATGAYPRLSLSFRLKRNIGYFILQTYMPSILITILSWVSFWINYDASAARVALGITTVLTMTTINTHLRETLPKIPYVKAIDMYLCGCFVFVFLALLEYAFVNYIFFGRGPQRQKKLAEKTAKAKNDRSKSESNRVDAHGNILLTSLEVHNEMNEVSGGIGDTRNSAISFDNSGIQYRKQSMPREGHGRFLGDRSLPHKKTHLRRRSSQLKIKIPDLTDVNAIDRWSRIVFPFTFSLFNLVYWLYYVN
# T1 sequence (P18507 40-475, one chain of several): as the sequence (P18507 40-475, one chain of several) above
# T5 sequence (P28472 26-473 L256C, one chain of several): as the sequence (P28472 26-473 M311C, one chain of several) above, with L231C, C286M counted along it
# T5 sequence (P18507 40-475, one chain of several): as the sequence (P18507 40-475, one chain of several) above
SMILES,"protection from pCMBS modification (significant reduction of modification ratio vs control, p < 0.05) [1]","SCAMP result, γ2– (M1) I242 [2]","protection from pCMBS modification (significant reduction of modification ratio vs control, p < 0.05) [3]","protection from pCMBS modification (significant reduction of modification ratio vs control, p < 0.05) [4]","protection from pCMBS modification (significant reduction of modification ratio vs control, p < 0.05) [5]"
"CCOC(=O)c1cncn1[C@H](C)c1ccccc1 [etomidate, R-etomidate]",protection was inferred,–,–,–,–
"C=CCC1(c2cccc(C3(C(F)(F)F)N=N3)c2)C(=O)NC(=O)N(C)C1=O (centres unmarked) [R-mTFD-MPAB, R-5-allyl-1-methyl-5-(m-trifluoromethyl-diazirynylphenyl) barbituric acid]",–,-^[9],protection was inferred,protection was inferred,protection was also inferred
